For test [1], the system named is HL-60 (ATCC CCL-240) cells. Briefly: Viability of HL-60 cells by Trypan Blue staining. The test is classed as cell-based. To be noted: Homo sapiens, read-out: Viability50, concentration that results in a viability of 50%. The procedure: HL-60 (ATCC CCL-240) cells were cultured at 37° C. in RPMI 1640 medium (Bio Whittaker) containing 10% fetal calf serum (JRH) which had been treated at 56° C. for 30 minutes and suspended in RPMI 1640 medium at a concentration of 2.5×10^5 cells/4.5 ml.
[…] each of aqueous solutions of the compound (2) at a concentration of 10, 50 or 100 mM, the compound (7) at a concentration of 500, 1000 or 1500 μM, the compound (9) at a concentration of 750, 1500 or 3000 μM, the compound (11) at a concentration of 750, 1500 or 3000 μM, or the compound (14) at a concentration of 750, 1500 or 3000 μM was added to 4.5 ml of the suspension. The mixtures were incubated at 37° C. for 24 hours in the presence of 5% CO2.
A portion of the cells cultured for 24 or 48 hours as described in Example 4 was stained with 0.4% Trypan Blue and examined under an optical microscope. The number of viable cells which were not stained and the number of dead cells which were stained blue were counted. The concentration of each of the compounds (2), (7), (9), (11) and (14) that results in a viability of 50% (Viability50 mM) was determined.

In test [2] the test system is NO production in celiac macrophages. Briefly: NO production of celiac macrophages from orally dosed mice. In kind it is in vivo. To be noted: 1% suspension in olive oil, forced oral administration once a day, 12 times in 15 days, 10 or 30 ml/kg, ddY mice. On the procedure:
The compound (7) in Example 1 was suspended in olive oil (Nacalai Tesque) at a concentration of 1% to prepare a 1% suspension of the compound (7). The 1% suspension of the compound (7) prepared as described above was administered to ddY mice (Japan SLC, female, 7 weeks old) by forced oral administration once a day, 12 times in 15 days, at a dosage of 10 or 30 ml/kg. Tap water was similarly administered by forced oral administration as a control. Each group consisted of 3 mice. Thereafter, 4 ml of RPMI 1640 medium (Bio Whittaker, Code. 12-702F) containing 10% fetal calf serum was intraperitoneally injected. Media removed from 3 mice after extensive massage were combined to obtain celiac cells. The celiac cells were suspended in RPMI 1640 medium containing 10% fetal calf serum at a concentration of 10^6 cells/ml. 500 μl of the suspension was added to each well of a 48-well microtiter plate and the plate was incubated at 37° C. for 2 hours in the presence of 5% CO2. Adhesive cells obtained by removing the culture supernatant were used as celiac macrophages. 500 μl of fresh Dulbecco's modified Eagle's medium (Bio Whittaker, Code. 12-917F) without Phenol Red containing 10% fetal calf serum and 2 mM L-glutamine was added to each well. […] The concentration of NO2^− resulting from oxidation of NO in the medium was then measured as described in Example 6. […]

The test system of test [3] is HL-60 cells (ATCC CCL-240). Description: Proliferation of HL-60 cells with or without hydroxyurea G1 arrest (WST-1). The test is classed as cell-based, Human. To be noted: Homo sapiens, 48 hours. On the procedure:
HL-60 cells (ATCC CCL-240) were suspended in RPMI 1640 medium (Bio Whittaker, 12-702F) containing 10% fetal calf serum (Gibco) and 100 μM hydroxyurea at a concentration of 5×10^5 cells/ml. 20 ml of the suspension was added to a 10-cm Petri dish. The dish was incubated at 37° C. overnight in the presence of 5% CO2 to make the cells arrest at G1 phase. The cells were collected by centrifugation and resuspended in RPMI 1640 medium containing 10% fetal calf serum (Gibco) and 100 μM hydroxyurea at a concentration of 5×10^5 cells/ml. 5 ml of the suspension was added to each well of a 6-well microtiter plate. On the other hand, as cells without the treatment with hydroxyurea, HL-60 cells were suspended in RPMI 1640 medium containing 10% fetal calf serum (Gibco) at a concentration of 1×10^5 cells/ml. 5 ml of the suspension was added to each well of a 6-well microtiter plate. 50 μl of a solution containing DGE at a concentration of 30, 22.5, 15 or 7.5 mM in water, 25 μl of a solution containing the compound (7) at a concentration of 60, 45, 30 or 15 mM in dimethyl sulfoxide, or 25 μl of a solution containing the compound (17) at a concentration of 100, 75, 50 or 25 mM in dimethyl sulfoxide was added to the well containing the cells treated with hydroxyurea. 50 μl of a solution containing DGE at a concentration of 8, 6, 4 or 2 mM in water, 25 μl of a solution containing the compound (7) at a concentration of 30, 22.5, 15 or 7.5 mM in dimethyl sulfoxide, or 25 μl of a solution containing the compound (17) at a concentration of 80, 60, 40 or 20 mM in dimethyl sulfoxide was added to the well containing the cells without the treatment with hydroxyurea. The plate was incubated for additional 48 hours. Cells collected by centrifuging the culture were suspended in 5 ml of fresh RPMI 1640 medium containing 10% fetal calf serum (Gibco). 100 μl of the suspension was used for measuring viable cell number using Premix WST-1 Cell Proliferation Assay System (Takara Shuzo, MK400).
For each of the samples, the concentration at which 50% of the proliferation is inhibited (IC50) for the cells treated with hydroxyurea was higher than that for the cells without the treatment with hydroxyurea. Table 3 summarizes IC50 (μM) for each of the samples. […] Since most of cells in a living body are arrested at G1 phase, it is considered that DGE and R-AhGal compounds (precursors of DGE) are agents less toxic to a living body.
(Tetrazolium dyes change colour on reduction, which living cells bring about.)

Where [4] appears, read: HL-60 cells arrested at G1 phase with 100 μM hydroxyurea, read-out: IC50, Cells treated with hydroxyurea.
The mark [5] stands for this setting: HL-60 cells, read-out: IC50, Cells without treatment with hydroxyurea.

Structures are written as SMILES. Where two headings read alike, the source gives them in different places.

For `O=C[C@H](O)[C@H]1OC[C@@H](O)[C@@H]1OC(=O)c1ccccc1` [Compound (7), 4-O-benzoyl-3,6-anhydro-D-galactose], the IC50 amounted to 123 µM in test [1] (24 hours), 101 µM in test [1] (48 hours), 151 µM in test [3] (setting [4]) and 79.1 µM in test [3] (setting [5]). The “activity of inhibiting NO production in celiac macrophages (LPS and IFN-γ)” value in test [2] was “remarkable activity of inhibiting NO production”.

With `OCC1OC(OC2C(CO)OC(OC3C(CO)OC(OC4C(O)COC4C(O)C(O)O)C(O)C3O)C(O)C2O)C(O)C(O)C1O` [Compound (14), 4-O-β-maltotoriosyl-3,6-anhydro-D-galactose], the IC50 in test [1] (24 hours) came out at 551 µM; in test [1] (48 hours), 150 µM.

As for `O=C[C@H](O)[C@H]1OC[C@@H](O)[C@@H]1OCc1ccccc1` [Compound (17), 4-O-benzyl-3,6-anhydro-D-galactose], the IC50 came out at 264 µM in test [3] (setting [4]) and 190 µM in test [3] (setting [5]).

For the origin of these results see patent US6518302B1, “Remedies” (Takara Shuzo Co., Ltd., priority 1999, dated 2003).
